Laboratory results as given in patent US20030215817A1, “Modulation of gene expression in formation of fatty atherosclerotic lesions” (priority 2003, published 2003).

Tests used:
Assay type in all cases: in vivo, rabbit
[1] = test system: REC1_36 (digital address TTAG 155) mRNA; assay: TOGA analysis, REC1_36; details: REC1_36 TTAG 155; rabbit aorta, cholesterol 14 days
Protocol: (§1) To perform the studies, New Zealand male rabbits weighing 2.0-2.5 kg (Charles River, Calco, Italy) were used. The rabbits were divided into three groups and maintained in identical experimental conditions: (1) control group (n=15); rabbits fed a cholesterol-rich diet; (2) lercanidipine-treated group (n=15); rabbits fed a cholesterol-rich diet and also treated with lercanidipine (3 mg/kg/week); and (3) (R)-lercanidipine-treated group (n=5); rabbits fed a cholesterol-rich diet and also treated with the (R)-enantiomer of lercanidipine (3 mg/kg/week). After a 2 week period of subcutaneous, once a week, pretreatment with 3 mg/kg/week of lercanidipine or (R)-lercanidipine, the rabbits received a daily cholesterol supplement for up to 8 weeks or 2 weeks, respectively. In the following examples, use of the term “lercanidipine” refers to the racemic mixture of lercanidipine hydrochloride, whereas “(R)-lercanidipine” refers to the (R)-enantiomer of lercanidipine hydrochloride.
(§2) The mRNA from the above-described groups was isolated from aorta at different time points, resulting in the following mRNA samples: (1) Day 0 Control=no administered cholesterol, no lercanidipine; (2) Day 0+lercanidipine=no administered cholesterol, treatment with lercanipidine (2 weeks; 3 mg/kg/week); (3) Day 14 Control=cholesterol diet for two weeks, no lercanidipine; (4) Day 14+lercanidipine=cholesterol diet for two weeks, treatment with lercanidipine (four weeks; 3 mg/kg/week); (5) Week 8 Control=cholesterol diet for 8 weeks, no lercanidipine; and (6) Week 8+lercanidipine=cholesterol diet for 8 weeks, treatment with lercanidipine (10 weeks; 3 mg/kg/week). In addition, Day 14+(R)-lercanidipine mRNA samples were prepared from rabbits given a cholesterol diet for two weeks and treated with 3 mg/kg/week (R)-lercanidipine for four weeks.
(§3) Aorta mRNAs were prepared in the following manner. First, the aortas from each experimental group were retrieved and shredded using a polytron homogenizer. The samples were further homogenized using a teflon pestle, after which the cellular debris, nuclei, and blood cells were pelleted by centrifugation. The supernatants were extracted twice with phenol-chloroform-isoamyl alcohol and once with chloroform-isoamyl alcohol. RNA was then precipitated from the aqueous phase with ethanol. The poly A+ mRNA was prepared using standard methods of polyA selection known in the art (Schriber et al., J. Mol. Biol., 142:93-116 (1980)).
(§4) The isolated mRNA was analyzed using a method of simultaneous sequence-specific identification of mRNAs known as TOGA, described in U.S. Pat. No. 5,459,037 and U.S. Pat. No. 5,807,680, hereby incorporated herein by reference. In a preferred embodiment, the TOGA method further comprised an additional PCR step performed using a mixture of four 5′ PCR primers and cDNA templates prepared from a population of antisense cRNAs. A final PCR step that used a mixture of 256 5′ PCR primers produced PCR products that were cDNA fragments that corresponded to the 3′-region of the starting mRNA population. The produced PCR products were then identified by: (a) the initial 5′ sequence comprising the sequence remainder of the recognition site of the restriction endonuclease used to cut and isolate the 3′ region plus the sequence of the preferably four parsing bases immediately 3′ to the remainder of the recognition site, preferably the sequence of the entire fragment; and (b) the length of the fragment. These two parameters, sequence and fragment length, were used to compare the obtained PCR products to a database of known polynucleotide sequences. Since the length of the obtained PCR products includes known vector sequences at the 5′ and 3′ ends of the insert, the sequence of the insert provided in the sequence listing is shorter than the fragment length that forms part of the digital address.
The method yields Digital Sequence Tags (DSTs), that is, polynucleotides that are expressed sequence tags of the 3′ end of mRNAs. […]

[2] = test system: REC1_3 (MspI ACGG 162) mRNA; assay: TOGA analysis, REC1_3; details: REC1_3, ACGG 162; rabbit aorta; 14 days cholesterol + (R)-enantiomer
Protocol: as §1, §2, §3
as §4, with “These two parameters, sequence and fragment length, were used to compare the obtained PCR products to a database of known polynucleotide sequences. Since the length of the obtained PCR products includes known vector sequences at the 5′ and 3′ ends of the insert, the sequence of the insert provided in the sequence listing is shorter than the fragment length that forms part of the digital address.” left out

[3] = test system: REC1_16 (TCGG 195) mRNA; assay: TOGA analysis, REC1_16; details: REC1_16 TCGG 195; rabbit aorta, 14 days cholesterol, (R)-enantiomer
Protocol: as §1, §2, §3
as §4, with “These two parameters, sequence and fragment length, were used to compare the obtained PCR products to a database of known polynucleotide sequences. Since the length of the obtained PCR products includes known vector sequences at the 5′ and 3′ ends of the insert, the sequence of the insert provided in the sequence listing is shorter than the fragment length that forms part of the digital address.” left out

[4] = test system: REC1_12 (GCCC 232) mRNA, alpha smooth muscle actin; assay: TOGA analysis, REC1_12; details: REC1_12 GCCC 232; rabbit aorta, 14 days cholesterol
Protocol: as §1, §2, §3
as §4, with “These two parameters, sequence and fragment length, were used to compare the obtained PCR products to a database of known polynucleotide sequences. Since the length of the obtained PCR products includes known vector sequences at the 5′ and 3′ ends of the insert, the sequence of the insert provided in the sequence listing is shorter than the fragment length that forms part of the digital address.” left out

[5] = test system: REC1_5 (AGTG 184) mRNA; assay: TOGA analysis, REC1_5; details: REC1_5, AGTG 184; rabbit aorta; 14 days cholesterol + (R)-enantiomer
Protocol: as §1, §2, §3
as §4, with “These two parameters, sequence and fragment length, were used to compare the obtained PCR products to a database of known polynucleotide sequences. Since the length of the obtained PCR products includes known vector sequences at the 5′ and 3′ ends of the insert, the sequence of the insert provided in the sequence listing is shorter than the fragment length that forms part of the digital address.” left out

[6] = test system: REC1_19 (TGTT 393) mRNA; assay: TOGA analysis, REC1_19; details: REC1_19 TGTT 393; rabbit aorta, cholesterol 14 days
Protocol: as §1, §2, §3
as §4, with “These two parameters, sequence and fragment length, were used to compare the obtained PCR products to a database of known polynucleotide sequences. Since the length of the obtained PCR products includes known vector sequences at the 5′ and 3′ ends of the insert, the sequence of the insert provided in the sequence listing is shorter than the fragment length that forms part of the digital address.” left out

[7] = test system: REC1_6 (MspI ATCC 176) mRNA, ferritin light chain subunit; assay: TOGA analysis, REC1_6; details: REC1_6, ATCC 176; rabbit aorta; 14 days cholesterol + (R)-enantiomer
Protocol: as §1, §2, §3
as §4, with “These two parameters, sequence and fragment length, were used to compare the obtained PCR products to a database of known polynucleotide sequences. Since the length of the obtained PCR products includes known vector sequences at the 5′ and 3′ ends of the insert, the sequence of the insert provided in the sequence listing is shorter than the fragment length that forms part of the digital address.” left out

[8] = test system: REC1_13 (MspI GCCC 216) mRNA; assay: TOGA analysis, REC1_13; details: REC1_13 GCCC 216; rabbit aorta, 14 days cholesterol
Protocol: as §1, §2, §3
as §4, with “These two parameters, sequence and fragment length, were used to compare the obtained PCR products to a database of known polynucleotide sequences. Since the length of the obtained PCR products includes known vector sequences at the 5′ and 3′ ends of the insert, the sequence of the insert provided in the sequence listing is shorter than the fragment length that forms part of the digital address.” left out

[9] = test system: REC1_18 (MspI TGGT 241) mRNA; assay: TOGA analysis, REC1_18; details: REC1_18 TGGT 241; rabbit aorta, cholesterol 14 days
Protocol: as §1, §2, §3
as §4, with “These two parameters, sequence and fragment length, were used to compare the obtained PCR products to a database of known polynucleotide sequences. Since the length of the obtained PCR products includes known vector sequences at the 5′ and 3′ ends of the insert, the sequence of the insert provided in the sequence listing is shorter than the fragment length that forms part of the digital address.” left out

[10] = test system: REC1_20 (TTAC 210) mRNA, phosphofructo-1-kinase C isozyme; assay: TOGA analysis, REC1_20; details: REC1_20 TTAC 210; rabbit aorta, cholesterol 14 days
Protocol: as §1, §2, §3
as §4, with “These two parameters, sequence and fragment length, were used to compare the obtained PCR products to a database of known polynucleotide sequences. Since the length of the obtained PCR products includes known vector sequences at the 5′ and 3′ ends of the insert, the sequence of the insert provided in the sequence listing is shorter than the fragment length that forms part of the digital address.” left out

[11] = test system: REC1_8 (MspI CCCG 243) mRNA; assay: TOGA analysis, REC1_8; details: REC1_8 CCCG 243; rabbit aorta, 14 days cholesterol
Protocol: as §1, §2, §3
as §4, with “These two parameters, sequence and fragment length, were used to compare the obtained PCR products to a database of known polynucleotide sequences. Since the length of the obtained PCR products includes known vector sequences at the 5′ and 3′ ends of the insert, the sequence of the insert provided in the sequence listing is shorter than the fragment length that forms part of the digital address.” left out

[12] = test system: REC1_21 (TTCC 165) mRNA, elastin gene; assay: TOGA analysis, REC1_21; details: REC1_21 TTCC 165; rabbit aorta, cholesterol 14 days
Protocol: as §1, §2, §3
as §4, with “These two parameters, sequence and fragment length, were used to compare the obtained PCR products to a database of known polynucleotide sequences. Since the length of the obtained PCR products includes known vector sequences at the 5′ and 3′ ends of the insert, the sequence of the insert provided in the sequence listing is shorter than the fragment length that forms part of the digital address.” left out

Q: `COC(=O)C1=C(C)NC(C)=C(C(=O)OC(C)(C)CN(C)CCC(c2ccccc2)c2ccccc2)[C@@H]1c1cccc([N+](=O)[O-])c1` [Lercanidipine (R)] was tested. Which “level of gene expression, 14 Day hypercholesterol + Lercanidipine (R)” value [1] did it give?
A: Its value is 500.

Q: And the “level of gene expression (TOGA), 14 Day hypercholesterol + Lercanidipine (R)” value (“level of gene expression (TOGA)” below) [2]?
A: The value was 197.

Q: What about the “level of gene expression (TOGA)” value [3] of the same compound?
A: Its value is 1554.

Q: What about the “level of gene expression, 14 Day hypercholesterol + Lercanidipine (R)” value [4] of the same compound?
A: The value was 3993.

Q: And the “level of gene expression (TOGA)” value [5]?
A: The value was 643.

Q: And the “level of gene expression, 14 Day hypercholesterol + Lercanidipine (R)” value [6]?
A: The value was 748.

Q: And the “level of gene expression (TOGA)” value [7]?
A: The value was 365.

Q: And the “level of gene expression, 14 Day hypercholesterol + Lercanidipine (R)” value [8]?
A: Its value is 404.

Q: What about the “level of gene expression, 14 Day hypercholesterol + Lercanidipine (R)” value [9] of the same compound?
A: The value was 330.

Q: And the “level of gene expression, 14 Day hypercholesterol + Lercanidipine (R)” value [10]?
A: Its value is 669.

Q: What about the “level of gene expression, 14 Day hypercholesterol + Lercanidipine (R)” value [11] of the same compound?
A: Its value is 539.

Q: And the “level of gene expression, 14 Day hypercholesterol + Lercanidipine (R)” value [12]?
A: The value was 1574.
